# Data taken from PMC7436013, “Design, Synthesis, and Biological Investigation of Novel Classes of 3-Carene-Derived Potent Inhibitors of TDP1” (Molecules, 2020).
# “Also recorded” adds a separate entry of the source.
# Key:
# [1] = biological target: T1, TDP1 (Homo sapiens, UniProt Q9NUW8); assay: Real-time detection of TDP1 activity with fluorescent oligonucleotide biosensor; assay type: biochemical; conditions: for IC50: real-time fluorescent oligonucleotide biosensor, 1.5 nM TDP1, 50 nM substrate, read-out: IC50, TDP1 inhibition
# T1 construct: made in house; host or cells: Escherichia coli
# Protocol: The compounds synthesized starting from (+)-3-carene 8 were tested for their TDP1 inhibitory properties by measuring their IC50 values using a real-time fluorescent oligonucleotide biosensor [38].
# A fluorophore quencher-coupled oligonucleotide biosensor was used for TDP1 enzyme activity real-time fluorescence detection. […] Recombinant protein TDP1 was expressed in Escherichia coli (pET 16B plasmid containing TDP1 cDNA was provided by Dr. K.W. Caldecott, University of Sussex, United Kingdom) and isolated as described by Lebedeva et al.. The reaction mixture contained TDP1 reaction buffer (50 mM Tris-HCl, 50 mM NaCl, 7 mM β-mercaptoethanol), 50 nM oligonucleotide substrate, varied concentrations of the tested compounds, and 1.5 nM purified TDP1 in a final volume of 200 μL.
# The TDP1 reaction mixture was incubated at rt in a POLARstar OPTIMA fluorimeter (BMG LABTECH, GmbH). Fluorescence intensity was measured every 1 min (Ex485/Em520 nm). The efficiency of TDP1 inhibition was evaluated by comparing the rate of increase in the fluorescence of the biosensor in the presence of the compound to that of DMSO (1.5%) control wells. IC50 values were determined using an 11-point concentration–response curve. The data were imported into MARS Data Analysis 2.0 program (BMG LABTECH) and the slope during the linear phase was calculated. The IC50 measurements were carried out in at least three independent experiments.
# [2] = test system: HCT116 (human colon cancer); assay: Colorimetric cytotoxicity test, HCT116; assay type: cell-based
# Protocol: (§1) The cytotoxicity of the compounds was examined against human cell lines HEK293FT (human embryonic kidney), WT and TDP1-deficient (TDP1-/-), HCT116 (human colon cancer), IMR-32 (human neuroblastoma cell line), HeLa (cervical cancer), and Krebs-2 carcinoma ascites using MTT and EZ4U colorimetric tests or an xCELLigence DP Real-Time Cell Analyzer (ACEA Biosciences, San Diego, CA, USA) for HEK293FT in cells exposed to the compounds. The cells were grown in DMEM/F12 or IMDM (for IMR-32 and Krebs-2) medium (Gibco), with 1x GlutaMAX (Gibco), 50 IU/mL penicillin, 50 μg/mL streptomycin (MP Biomedicals, Irvine, CA, USA) and in the presence of 10% fetal bovine serum (Biolot). The cells (~20,000 cells per well) were incubated for 24 h at 37 °C in 5% CO2, and then treated with the tested compounds (the volume of the added reagents was 1/100 of the total volume of the culture medium, the amount of DMSO was 1% of the final volume as indicated). Control cells were grown in the presence of 1% DMSO where indicated. After 72 h of cell incubation, the relative amount of living cells was determined using a colorimetric test of the amount of formazan converted from 3-(4,5-dimethylthiazol-2-yl)-2,5-diphenyl-2H-tetrazolium bromide (MTT test) or EZ4U Cell Proliferation and Cytotoxicity Assay (Biomedica, Austria), as per the manufacturer’s protocols. The real-time detection of the living cells was done by an xCELLigence DP Real-Time Cell Analyzer (ACEA Biosciences). The measurements were carried out in three parallel experiments.
# [3] = test system: HEK293FT TDP1−/− cells; assay: Colorimetric cytotoxicity test (MTT/EZ4U), HEK293FT TDP1-/-; assay type: cell-based, human; conditions: for IC50: Homo sapiens, HEK293FT, 72 h, read-out: Tpc IC50, colorimetric test
# Protocol: (§2) We analyzed, using a colorimetric test, the relative amount of viable cells after treating HEK293FT WT and TDP1-deficient (TDP1−/−) cells with increasing concentrations of Tpc for 72 h. […] Next, we studied WT and mutant cells’ live activity after Tpc treatment on the xCELLigence System (ACEA Biosciences, USA) by the impedance-based assay. HEK293FT TDP1−/− cells were more sensitive to Tpc (Figure 2B). After Tpc administration to the cells, an […] of the slope was seen, characterizing the velocity of the cell growth with Tpc as compared to the control both for WT (red columns) and mutant cells (green columns) (Figure S1, Supplementary Materials). […] The sharper decrease of the slope for the mutant cells than for the WT (compare the histogram for the 0 and 0.05 μM Tpc concentration, ~1.5 times for WT cells (red) and ~6 times for TDP1−/−cells (green)) also characterizes the higher sensitivity of the mutant to the TOP1 inhibitor. […] There was a three-fold difference for these IC50 values, which is nearly the same as for the colorimetric assay.
# as §1
# [4] = test system: IMR-32 (human neuroblastoma cell line); assay: Colorimetric cytotoxicity test, IMR-32; assay type: cell-based
# Protocol: as §1
# [5] = test system: HEK293FT WT cells; assay: Colorimetric cytotoxicity test (MTT/EZ4U), HEK293FT WT; assay type: cell-based, human; conditions: for IC50: Homo sapiens, HEK293FT, 72 h, read-out: Tpc IC50, colorimetric test
# Protocol: as §2, §1
# [6] = test system: HeLa (cervical carcinoma); assay: Colorimetric cytotoxicity test, HeLa; assay type: cell-based, human
# Protocol: as §1
# [7] = test system: Krebs-2 carcinoma cells; assay: Colorimetric cytotoxicity test, Krebs-2; assay type: cell-based
# Protocol: as §1, with “The real-time detection of the living cells was done by an xCELLigence DP Real-Time Cell Analyzer (ACEA Biosciences). The measurements were carried out in three parallel experiments.” left out
# [8] = test system: HEK293FT WT cells; assay: Impedance-based real-time assay (xCELLigence), HEK293FT WT; assay type: cell-based, human
# Protocol: as §2, with “colorimetric assay. […]” for “colorimetric assay.”
# [9] = test system: HEK293FT TDP1−/− cells; assay: Impedance-based real-time assay (xCELLigence), HEK293FT TDP1-/-; assay type: cell-based, human
# Protocol: as §2, with “colorimetric assay. […]” for “colorimetric assay.”
# [10] = test system: TDP1; set-up: method as in PMID 31619021, PMID 30396105, PMID 30142660, PMID 29562592, PMID 27658793; conditions: Figure 1; ref [10]-[13],[16]-[18],[20],[22]; read-out: IC50 of known TDP1 inhibitors; cited from earlier work
# [11] = test system: human breast adenocarcinoma cell line MCF-7; set-up: method as in PMID 27658793; conditions: ref [16]; cited from earlier work
# [12] = test system: lung adenocarcinoma cells A549; set-up: method as in PMID 30523770, doi:10.3390/app9132767; conditions: ref [18],[20]; cited from earlier work
# [13] = Homo sapiens, in H2O, read-out: Tpc IC50, impedance-based assay
# T1 sequence (Q9NUW8 whole entry): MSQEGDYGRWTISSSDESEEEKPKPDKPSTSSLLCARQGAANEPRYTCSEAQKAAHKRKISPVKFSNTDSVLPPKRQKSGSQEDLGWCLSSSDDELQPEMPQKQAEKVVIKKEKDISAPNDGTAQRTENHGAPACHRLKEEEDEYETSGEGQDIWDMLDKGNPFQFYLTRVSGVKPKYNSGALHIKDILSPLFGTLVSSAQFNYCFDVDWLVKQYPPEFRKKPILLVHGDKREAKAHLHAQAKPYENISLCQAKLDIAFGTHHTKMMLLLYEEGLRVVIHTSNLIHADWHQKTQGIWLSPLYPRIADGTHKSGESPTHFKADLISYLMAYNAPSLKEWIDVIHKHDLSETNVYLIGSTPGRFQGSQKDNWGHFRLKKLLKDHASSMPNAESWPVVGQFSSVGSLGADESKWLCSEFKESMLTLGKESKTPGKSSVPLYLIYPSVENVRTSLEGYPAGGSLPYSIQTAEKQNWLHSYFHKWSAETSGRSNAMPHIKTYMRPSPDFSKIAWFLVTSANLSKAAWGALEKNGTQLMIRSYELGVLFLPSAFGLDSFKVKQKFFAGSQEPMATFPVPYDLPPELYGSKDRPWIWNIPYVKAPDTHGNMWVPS
smiles,measurement,setting,value
"CC1=CC[C@@H]2C[C@H]1[C@H](c1cc(Br)cs1)OC2(C)C [12g, (1R,4R,5R)-2,2,6-trimethyl-4-(4-bromothiophen-2-yl)-3-oxabicyclo[3.3.1]non-6-ene]",IC50,[1],650 ± 220 nM
"CC1=CC[C@@H]2C[C@H]1[C@H](c1ccc(Br)s1)OC2(C)C [12h, (1R,4R,5R)-2,2,6-trimethyl-4-(5-bromothiophen-2-yl)-3-oxabicyclo[3.3.1]non-6-ene]",IC50,[1],1750 ± 780 nM
"CC1=CC[C@@H]2C[C@H]1[C@H](c1ccc([N+](=O)[O-])o1)OC2(C)C [12j, (1R,4R,5R)-2,2,6-trimethyl-4-(5-nitrofuran-2-yl)-3-oxabicyclo[3.3.1]non-6-ene]",activity against TDP1 (in words),[1],did not exhibit high activity
same,IC50,[1],28000 ± 10000 nM
"CC1=CC[C@@H]2C[C@H]1[C@H](c1ccsc1)OC2(C)C [12k, (1R,4R,5R)-2,2,6-trimethyl-4-(thiophen-3-yl)-3-oxabicyclo[3.3.1]non-6-ene]",intrinsic cytotoxicity,[2]; HCT116,low
same,dose-dependent action of inhibitor in the presence of Tpc on cell growth,"[2]; HCT, Tpc 900 nM, Figure 4B",no effect
same,effect of TDP1 inhibitor in conjunction with Tpc on cell growth,[3]; Tpc 30 nM,not found; also recorded: no effect
same,intrinsic cytotoxicity,[4]; IMR-32,low
same,dose-dependent action of Tpc in the presence of inhibitor,"[4]; IMR-32, Figure 4C",synergistic action
same,dose-dependent action of inhibitor in the presence of Tpc on cell growth,"[4]; IMR-32, Tpc 8 nM, Figure 4B",suppressed cell growth
same,effect of TDP1 inhibitor in conjunction with Tpc on cell growth,[5]; Tpc 200 nM,cell growth suppression; also recorded: synergistic effect; also recorded: Suppressed cell growth
same,intrinsic cytotoxicity,[6],low
same,enhancement of the Tpc cytotoxicity,[6]; data not shown,no enhancement
same,IC50,[1],1200 ± 140 nM
same,intrinsic cytotoxicity,[7],low
"CC[C@@]1(O)C(=O)OCc2c1cc1n(c2=O)Cc2cc3c(CN(C)C)c(O)ccc3nc2-1 [Tpc, topotecan, reference compound]",IC50,[8]; [13],60 nM
same,"decrease of the slope (velocity of cell growth), 0 vs 0.05 μM Tpc",[8]; ~70 h after Tpc treatment,~ 1.5 times
same,IC50,"[2]; Homo sapiens, HCT-116, read-out: Tpc IC50 (concentration close to IC50)",~900 nM
same,IC50,[3]; in DMSO,30 nM
same,IC50,[3]; in H2O,150 nM
same,IC50,"[4]; Homo sapiens, IMR-32, read-out: Tpc IC50 (concentration close to IC50)",~8 nM
same,IC50,[9]; [13],20 nM
same,"decrease of the slope (velocity of cell growth), 0 vs 0.05 μM Tpc",[9]; ~70 h after Tpc treatment,~ 6 times
same,IC50,[5]; in DMSO,200 nM
same,IC50,[5]; in H2O,250 nM
CC(=O)C[C@H]1CC2C(CCC3C[C@H](OC(C)=O)CC[C@@]32C)C2CC[C@H]([C@H](C)CCC(=O)NC34CC5CC(CC(C5)C3)C4)[C@]21C (stereo partly drawn) [compound 2],IC50,[10],470 nM
C[C@@H]1CC[C@@H]2[C@@H](C1)O[C@@H](c1ccc(NC(=O)C34CC5CC(CC(C5)C3)C4)s1)C[C@]2(C)O [compound 3],IC50,[10],1200 nM
CC1(C)C2CC=C(COc3ccc4c5c(c(=O)oc4c3)CCC5)C1C2 (stereo not drawn) [compound 4],reduction of the CC50 of camptothecin,[11],eight-fold
same,IC50,[10],680 nM
CC(C)CCCC(C)CCOC(=O)C12CC3CC(CC(C3)C1)C2 (stereo not drawn) [compound 6],synergism in combination with Tpc,[12],strong synergism
same,IC50,[10],920 nM
CC(C)CCCC(C)CCNC(=S)C12CC3CC(CC(C3)C1)C2 (stereo not drawn) [compound 7],synergism in combination with Tpc,[12],strong synergism
same,IC50,[10],3300 nM
